Data taken from the supplement of paper PMC8612539.
Values after ≈ are worked out from the molar mass of the structure shown.

Tested on: Pasteurella multocida
Assay: minimum inhibitory concentration (MIC)
Description: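 Broth microdilution MIC (Sensititre BOPO7F bovine plate, CLSI methods) of 19 antimicrobials against field isolates of P. multocida, M. haemolytica, H. somni (deep nasopharyngeal swabs) and E. coli, Enterococcus spp. (rectal swabs) from weaned dairy heifers. Incubation 16-24 h at 35 C. MIC is the lowest concentration preventing visible growth. Values with <= or > lie at the tested range limits. Trimethoprim-sulfamethoxazole is given as the trimethoprim component of a 1:19 mixture.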

CN[C@@H]1[C@H](O)[C@H](NC)[C@H]2O[C@@]3(O)C(=O)C[C@@H](C)O[C@H]3O[C@@H]2[C@H]1O [Spectinomycin]
Settings	minimum inhibitory concentration [µg/mL]
isolate (source animal id): 10	32 (≈ 96.3 µM)
isolate (source animal id): 11	32 (≈ 96.3 µM)
isolate (source animal id): 12	32 (≈ 96.3 µM)
isolate (source animal id): 19	32 (≈ 96.3 µM)
isolate (source animal id): 23	32 (≈ 96.3 µM)
isolate (source animal id): 26	32 (≈ 96.3 µM)
isolate (source animal id): 98	32 (≈ 96.3 µM)
isolate (source animal id): 104	≤ 8
isolate (source animal id): 115	> 64
isolate (source animal id): 117	32 (≈ 96.3 µM)
isolate (source animal id): 118	32 (≈ 96.3 µM)
isolate (source animal id): 121	> 64
isolate (source animal id): 124	32 (≈ 96.3 µM)
isolate (source animal id): 125	32 (≈ 96.3 µM)
isolate (source animal id): 128	> 64
isolate (source animal id): 131	> 64
isolate (source animal id): 135	> 64
isolate (source animal id): 136	> 64
isolate (source animal id): 140	16 (≈ 48.1 µM)
isolate (source animal id): 144	32 (≈ 96.3 µM)
isolate (source animal id): 146	32 (≈ 96.3 µM)
isolate (source animal id): 150	> 64
isolate (source animal id): 151	> 64
isolate (source animal id): 153	16 (≈ 48.1 µM)
isolate (source animal id): 155	32 (≈ 96.3 µM)
isolate (source animal id): 157	16 (≈ 48.1 µM)
isolate (source animal id): 160	> 64
isolate (source animal id): 164	> 64
isolate (source animal id): 165	> 64
isolate (source animal id): 167	> 64
isolate (source animal id): 168	32 (≈ 96.3 µM)
isolate (source animal id): 169	32 (≈ 96.3 µM)
isolate (source animal id): 170	32 (≈ 96.3 µM)
isolate (source animal id): 171	32 (≈ 96.3 µM)
isolate (source animal id): 172	> 64
isolate (source animal id): 173	32 (≈ 96.3 µM)
isolate (source animal id): 174	> 64
isolate (source animal id): 175	> 64
isolate (source animal id): 176	> 64
isolate (source animal id): 177	> 64
isolate (source animal id): 178	> 64
isolate (source animal id): 179	32 (≈ 96.3 µM)
isolate (source animal id): 182	> 64
isolate (source animal id): 192	> 64
isolate (source animal id): 193	> 64
isolate (source animal id): 195	> 64
isolate (source animal id): 196	> 64
isolate (source animal id): 197	> 64
isolate (source animal id): 198	32 (≈ 96.3 µM)
isolate (source animal id): 199	32 (≈ 96.3 µM)
isolate (source animal id): 200	32 (≈ 96.3 µM)
isolate (source animal id): 201	> 64
isolate (source animal id): 203	> 64
isolate (source animal id): 204	> 64
isolate (source animal id): 205	32 (≈ 96.3 µM)
isolate (source animal id): 206	> 64
isolate (source animal id): 207	> 64
isolate (source animal id): 208	32 (≈ 96.3 µM)
isolate (source animal id): 209	> 64
isolate (source animal id): 210	32 (≈ 96.3 µM)
isolate (source animal id): 213	32 (≈ 96.3 µM)
isolate (source animal id): 216	> 64
isolate (source animal id): 223	32 (≈ 96.3 µM)
isolate (source animal id): 227	> 64
isolate (source animal id): 229	32 (≈ 96.3 µM)
isolate (source animal id): 233	32 (≈ 96.3 µM)
isolate (source animal id): 234	32 (≈ 96.3 µM)
isolate (source animal id): 237	32 (≈ 96.3 µM)
isolate (source animal id): 241	16 (≈ 48.1 µM)
isolate (source animal id): 245	32 (≈ 96.3 µM)
isolate (source animal id): 247	32 (≈ 96.3 µM)
isolate (source animal id): 250	16 (≈ 48.1 µM)
isolate (source animal id): 254	32 (≈ 96.3 µM)
isolate (source animal id): 255	32 (≈ 96.3 µM)
isolate (source animal id): 258	> 64
isolate (source animal id): 261	32 (≈ 96.3 µM)
isolate (source animal id): 262	32 (≈ 96.3 µM)
isolate (source animal id): 269	32 (≈ 96.3 µM)
isolate (source animal id): 270	32 (≈ 96.3 µM)
isolate (source animal id): 274	32 (≈ 96.3 µM)
isolate (source animal id): 275	32 (≈ 96.3 µM)
isolate (source animal id): 276	16 (≈ 48.1 µM)
isolate (source animal id): 277	32 (≈ 96.3 µM)
isolate (source animal id): 278	32 (≈ 96.3 µM)
isolate (source animal id): 279	32 (≈ 96.3 µM)
isolate (source animal id): 280	32 (≈ 96.3 µM)
isolate (source animal id): 284	32 (≈ 96.3 µM)
isolate (source animal id): 285	32 (≈ 96.3 µM)
isolate (source animal id): 287	32 (≈ 96.3 µM)
isolate (source animal id): 290	32 (≈ 96.3 µM)
isolate (source animal id): 294	32 (≈ 96.3 µM)
isolate (source animal id): 295	16 (≈ 48.1 µM)
isolate (source animal id): 296	32 (≈ 96.3 µM)
isolate (source animal id): 307	32 (≈ 96.3 µM)
isolate (source animal id): 310	32 (≈ 96.3 µM)
isolate (source animal id): 311	16 (≈ 48.1 µM)
isolate (source animal id): 312	16 (≈ 48.1 µM)
isolate (source animal id): 313	16 (≈ 48.1 µM)
isolate (source animal id): 315	32 (≈ 96.3 µM)
isolate (source animal id): 316	32 (≈ 96.3 µM)

CN(C)[C@@H]1C(O)=C(C(N)=O)C(=O)[C@@]2(O)C(O)=C3C(=O)c4c(O)cccc4[C@@](C)(O)[C@H]3C[C@@H]12 [Tetracycline]
Settings	minimum inhibitory concentration [µg/mL]
isolate (source animal id): 10	> 8
isolate (source animal id): 11	> 8
isolate (source animal id): 12	> 8
isolate (source animal id): 19	> 8
isolate (source animal id): 23	> 8
isolate (source animal id): 26	> 8
isolate (source animal id): 98	> 8
isolate (source animal id): 104	> 8
isolate (source animal id): 115	> 8
isolate (source animal id): 117	> 8
isolate (source animal id): 118	> 8
isolate (source animal id): 121	> 8
isolate (source animal id): 124	> 8
isolate (source animal id): 125	> 8
isolate (source animal id): 128	> 8
isolate (source animal id): 131	> 8
isolate (source animal id): 135	> 8
isolate (source animal id): 136	> 8
isolate (source animal id): 140	> 8
isolate (source animal id): 144	> 8
isolate (source animal id): 146	> 8
isolate (source animal id): 150	> 8
isolate (source animal id): 151	> 8
isolate (source animal id): 153	> 8
isolate (source animal id): 155	> 8
isolate (source animal id): 157	> 8
isolate (source animal id): 160	> 8
isolate (source animal id): 164	> 8
isolate (source animal id): 165	> 8
isolate (source animal id): 167	> 8
isolate (source animal id): 168	> 8
isolate (source animal id): 169	4 (≈ 9 µM)
isolate (source animal id): 170	8 (≈ 18 µM)
isolate (source animal id): 171	8 (≈ 18 µM)
isolate (source animal id): 172	> 8
isolate (source animal id): 173	> 8
isolate (source animal id): 174	> 8
isolate (source animal id): 175	> 8
isolate (source animal id): 176	> 8
isolate (source animal id): 177	> 8
isolate (source animal id): 178	> 8
isolate (source animal id): 179	8 (≈ 18 µM)
isolate (source animal id): 182	> 8
isolate (source animal id): 192	> 8
isolate (source animal id): 193	> 8
isolate (source animal id): 195	> 8
isolate (source animal id): 196	> 8
isolate (source animal id): 197	> 8
isolate (source animal id): 198	> 8
isolate (source animal id): 199	8 (≈ 18 µM)
isolate (source animal id): 200	8 (≈ 18 µM)
isolate (source animal id): 201	8 (≈ 18 µM)
isolate (source animal id): 203	> 8
isolate (source animal id): 204	> 8
isolate (source animal id): 205	> 8
isolate (source animal id): 206	> 8
isolate (source animal id): 207	> 8
isolate (source animal id): 208	8 (≈ 18 µM)
isolate (source animal id): 209	> 8
isolate (source animal id): 210	> 8
isolate (source animal id): 213	8 (≈ 18 µM)
isolate (source animal id): 216	8 (≈ 18 µM)
isolate (source animal id): 223	> 8
isolate (source animal id): 227	> 8
isolate (source animal id): 229	> 8
isolate (source animal id): 233	> 8
isolate (source animal id): 234	> 8
isolate (source animal id): 237	> 8
isolate (source animal id): 241	> 8
isolate (source animal id): 245	> 8
isolate (source animal id): 247	> 8
isolate (source animal id): 250	> 8
isolate (source animal id): 254	> 8
isolate (source animal id): 255	> 8
isolate (source animal id): 258	> 8
isolate (source animal id): 261	> 8
isolate (source animal id): 262	> 8
isolate (source animal id): 269	8 (≈ 18 µM)
isolate (source animal id): 270	> 8
isolate (source animal id): 274	> 8
isolate (source animal id): 275	> 8
isolate (source animal id): 276	> 8
isolate (source animal id): 277	8 (≈ 18 µM)
isolate (source animal id): 278	> 8
isolate (source animal id): 279	> 8
isolate (source animal id): 280	> 8
isolate (source animal id): 284	> 8
isolate (source animal id): 285	> 8
isolate (source animal id): 287	> 8
isolate (source animal id): 290	> 8
isolate (source animal id): 294	> 8
isolate (source animal id): 295	> 8
isolate (source animal id): 296	> 8
isolate (source animal id): 307	> 8
isolate (source animal id): 310	> 8
isolate (source animal id): 311	> 8
isolate (source animal id): 312	> 8
isolate (source animal id): 313	> 8
isolate (source animal id): 315	> 8
isolate (source animal id): 316	> 8
